Measured values as given in US20250221953A1 (The University of Chicago, priority 2022, published 2025).
Like-named read-outs stand apart in the source and are kept apart here.

Legend:
[1] = test system: mouse primary CD8^+ T cells; assay: In vitro function of activated mouse primary CD8+ T cells (cytokines, Ki-67, apoptosis, p-CREB); assay type: cell-based; conditions: for effect of inhibitor/modulator on TVA-enhanced activation of CD8+ T cells (IL-2, TNF-α, IFN-γ): added synchronized with 20 μM TVA for 24 hours, SCH-202676 200 nM, H-89 200 nM, 666-15 100 nM
Procedure: For experiments with live/dead criteria, cells were first stained with Fixable Viability Dyes (FVD) (Thermo Fisher Scientific) according to the manufacturer's instructions. Subsequent surface marker staining was performed in Flow Cytometry Staining Buffer (Thermo Fisher Scientific). Intracellular staining for flow panels containing nuclear proteins was performed using the eBioscience FoxP3/Transcription Factor Staining Buffer Set (Thermo Fisher Scientific) according to the manufacturer's instructions. For intracellular staining of cytoplasmic proteins, the Fixation/Permeabilization Solution Kit (BD Biosciences) was used according to the manufacturer's instructions. […] The cell pellets were washed again with FACS buffer, centrifuged at 300×g for 5 minutes, and incubated with antibodies in FACS buffer for 45 minutes-1 hour at room temperature. […] Treatment with sulfosuccinimidyl oleate (SSO) was performed by incubating cells with 100 μM SSO for 24 hours.

Jurkat T cells = assay type: cell-based, human; conditions: IL-2 production level in treated group compared to control group, 48 hours treatment, then anti-CD3/anti-CD28 12 hours
Mouse T cell = assay: Second screen: IL-2 level of murine primary T cells; assay type: cell-based
Excerpt: Two preliminary screens were designed and performed.

Mouse CD4^+ T cell = assay: Second screen: IL-2 level of mouse CD4+ T cells
Mouse CD8^+ T cell = assay: Second screen: IL-2 level of mouse CD8+ T cells
[2] = test system: mouse primary CD8^+ T cells; assay: 13C1-TVA metabolic flux analysis by GC-MS; assay type: cell-based; conditions: 100 μM SSO, 24 hours
Procedure: Samples were kept at room temperature after centrifugation to form two distinct phases. 650 μL of the bottom dichloromethane fraction was transferred into a new glass tube and dried with nitrogen gas to obtain a lipid fraction pellet. […] FAME cleanup was applied if analyzing animal tissues (FAME Cleanup: a Florisil column was pre-conditioned with 3 mL of hexane, added methyl ester, and eluted twice with 1 mL isohexane-diethyl ether (95:5 v/v), with drying down in between elutions). Otherwise, samples were dried down under nitrogen and re-suspended in 50 μL of hexane to load onto gas chromatography (GC) mass spectrometry (MS). […] Metabolite levels and mass isotopomer distributions of derivatized fragments were analyzed with an in-house MATLAB script, which integrated the metabolite fragment ions and corrected for natural isotope abundances.

B16F10 tumor = assay: Mouse tumor model, B16F10; assay type: in vivo; conditions: B16F10 tumor-bearing C57BL/6 mice on enriched diet vs control diet
Procedure: For C57BL/6 mice and TCR-a KO mice tumor model, mice were anesthetized with isoflurane, shaved the injection site, and then injected subcutaneously in the abdominal flank with 1×10^5 B16F10, MC38, or LLC1 cells, or in the mammary gland with 2×10^5 E0771 cells. C57BL/6 nude mice were injected subcutaneously in the abdominal flank with 1×10^5B16F10 cells. […] Tumors were measured the tumors using a caliper every 2-3 days. Tumor volumes were calculated using the following formula: length×width×[(length×width)^0.5]×π/6. Mice were euthanized at humane endpoints or day 11-15 for tissue collection.
The mice were treated once a day for 5 consecutive days per week for 2 weeks. Tumors were measured the tumors using a caliper every 2-3 days. Tumor volumes were calculated using the following formula: length×width×[(length×width)^0.5]×π/6. Mice were euthanized at humane endpoints.
For anti-PD-1 treatment mouse model, 6-8 weeks old C57BL/6 mice were anesthetized with isoflurane, shaved the injection site, and then injected subcutaneously in the abdominal flank with 1×10^5 B16F10 for tumor development. […] In day 3, 6, 9, 12, and 15, 250 μg anti-PD-1 (BioXCell) or IgG control (BioXCell) was injected intraperitoneally per mouse. Tumors were measured the tumors using a caliper every 2-3 days. Tumor volumes were calculated using the following formula: length×width×[(length×width)^0.5]×π/6. […]

[3] = test system: B cell acute lymphoblastic leukemia (B-ALL); conditions: Kantarjian et al., 2017; cited from earlier work

| Compound | Relative changed percentage (%) (Jurkat T cells) | other results |
| --- | --- | --- |
| Cl.Cl.O=S(=O)(NCCNC/C=C/c1ccc(Br)cc1)c1cccc2cnccc12 [Compound H89, H 89 Dihydrochloride, reference compound] | – | effect of inhibitor/modulator on TVA-enhanced activation of CD8+ T cells (IL-2, TNF-α, IFN-γ) [1]: similarly abolishes TVA-enhanced activation of CD8^+ T cells |
| Cc1cn([C@H]2C[C@H](O)[C@@H](CO)O2)c(=O)[nH]c1=O [THYMIDINE] | 39.63 | Mouse T cell IL-2 level changes after treatment (Mouse T cell): 145.6%; Mouse CD4^+ T cell IL-2 level changes after treatment (Mouse CD4^+ T cell): 135.8%; Mouse CD8^+ T cell IL-2 level changes after treatment (Mouse CD8^+ T cell): 128.9% |
| CC(=O)O [acetate, reference compound] | – | enhanced CD8+ T cell activation by pre-treatment with 20 μM TVA (TVA first) ([1]; TVA 12 hours, then 20 mM acetate 12 hours): cannot be reversed by 20 mM acetate; CD8+ T cell activation (TNF-α, IFN-γ levels) ([1]; increasing concentrations of acetate up to 20 mM): attenuate CD8^+ T cell activation |
| CCCCCCCC/C=C\CCCCCCCC(=O)ON1C(=O)CC(S(=O)(=O)O)C1=O (stereo not shown) [SSO, sulfosuccinimidyl oleate, reference compound] | – | effect of SSO on TVA-dependent CD8+ T cell activation ([1]; 100 μM SSO, TNF-α, IFN-γ): does not affect TVA-dependent CD8^+ T cell activation; effect on import of 13C-TVA into CD8+ T cells [2]: drastically reduced import of ^13C-TVA |
| Nc1ccc(C(=O)O)cc1 [p-Aminobenzoic Acid] | – | Mouse T cell IL-2 level changes after treatment (Mouse T cell): 160.3%; Mouse CD4^+ T cell IL-2 level changes after treatment (Mouse CD4^+ T cell): 140.5%; Mouse CD8^+ T cell IL-2 level changes after treatment (Mouse CD8^+ T cell): 145.2% |
| D-Glycerate 2,3-diphosphate sodium salt | 47.74 | Mouse T cell IL-2 level changes after treatment (Mouse T cell): 106.2%; Mouse CD4^+ T cell IL-2 level changes after treatment (Mouse CD4^+ T cell): 97.9%; Mouse CD8^+ T cell IL-2 level changes after treatment (Mouse CD8^+ T cell): 121.4% |
| OC[C@H]1OC(O)[C@H](O)[C@@H](O)[C@H]1O (stereo partly drawn) [D(+)-GALACTOSE ANHYDROUS] | 35.84 | Mouse T cell IL-2 level changes after treatment (Mouse T cell): 130.1%; Mouse CD4^+ T cell IL-2 level changes after treatment (Mouse CD4^+ T cell): 110.4%; Mouse CD8^+ T cell IL-2 level changes after treatment (Mouse CD8^+ T cell): 130.3% |
| CCCCCC/C=C\CCCCCCCCCC(=O)O [CVA, cis-Vaccenic acid, reference compound] | – | body weights of mice (B16F10 tumor): did not alter body weights |
| Br.CN=c1nc(-c2ccccc2)n(-c2ccccc2)s1 [SCH 202676 hydrobromide, reference compound] | – | effect of inhibitor/modulator on TVA-enhanced activation of CD8+ T cells (IL-2, TNF-α, IFN-γ) [1]: abolishes TVA-enhanced activation of CD8^+ T cells |
| Cl.N[C@H]1C(O)O[C@H](CO)[C@@H](O)[C@@H]1O (stereo partly drawn) [D-(+)-Glucosamine Hydrochloride] | – | Relative changed percentage (%) (Jurkat T cells; Hydrochloride): −38.23% |
| PECTIN | −4.914 | – |
| O=P([O-])([O-])O.[K+].[K+] [Potassium Phosphate Dibasic] | 177.4846 | – |
| Cl.N=C(N)N [GUANIDINE IIYDROCIILORIDE,, GUANIDINE IIYDROCIILORIDE] | 41.83 | – |
| C[C@]12CCC(=O)C=C1CC[C@@H]1[C@@H]2CC[C@]2(C)C(=O)CC[C@@H]12 [ANDROSTENEDIONE] | 25.93 | – |
| Cc1ncc(CO)c(C=O)c1O.Cl [Pyridoxal Hydrochloride] | 7.787 | – |
| CC/C=C\C/C=C\C/C=C\C/C=C\C/C=C\CCCCCC(=O)O [Docosapentaenoic acid] | −19.39 | – |
| N[C@@H](CCC(=O)N[C@@H](CS)C(=O)NCC(=O)O)C(=O)O [L-GLUTATHIONE REDUCED] | 48.28 | – |
| NC(N)=O [UREA] | −0.3112 | – |
| CC[N+](CC)(CC)CC.O=S(=O)([O-])O | −35.95 | – |
| CC(=O)O[C@H]1CC[C@@]2(C)C(=CC[C@H]3[C@@H]4CC[C@H](C(C)=O)[C@@]4(C)CC[C@@H]32)C1 [Pregnenolone Acetate] | 82.91 | – |
| CC1=C[C@H](O)CC(C)(C)[C@H]1/C=C/C(C)=C/C=C/C(C)=C/C=C/C=C(C)/C=C/C=C(C)/C=C/C1=C(C)C[C@@H](O)CC1(C)C [Lutein] | 31.92 | – |
| CC(C)CCCC(C)CCCC(C)CCCC(C)CC(=O)O (stereo not shown) [PHYTANIC ACID] | −18.61 | – |
| COc1cc(/C=C/c2ccc(O)cc2)cc(OC)c1 [Pterostibene] | 6.874 | – |
| O=S(=O)([O-])[O-].[Cu+2] [Copper sulfate] | −26.32 | – |
| O=C(O)CC(O)C(=O)O (stereo not shown) [Malic acid] | 38.52 | – |
| Cl.N[C@H]1C(O)O[C@H](CO)[C@@H](O)[C@@H]1O (stereo partly shown) [Glucosamine Hydrochloride] | – | Relative changed percentage (%) (Jurkat T cells; Hydrochloride): −6.979% |
| NC[C@H](O)c1ccc(O)c(O)c1 [NOREPINEPHRINE] | 40.2469 | – |

| Compound | Relative changed percentage (%) (Jurkat T cells) | other results |
| --- | --- | --- |
| [Cl-].[K+] [POTASSIUM CHLORIDE/potassium, POTASSIUM CHLORIDE] | 38.97 | – |
| Nc1ncnc2c1ncn2[C@@H]1O[C@H](COP(=O)([O-])OP(=O)([O-])OP(=O)(O)O)[C@@H](O)[C@H]1O.[Na+].[Na+] [Adenosine 5′-Triphosphate Disodium] | −38.28 | – |
| Copper Gluconate | 4.0672 | – |
| Tricalcium phosphate hydrate | 51.49 | – |
| Blinatumomab: bi-specific T-cell engager (BiTE) targeting CD19 antigen on B cells and CD3 on T cells | – | response rate in relapsed disease [3]: < 50% |
| L-A-PHOSPHATIDYLETHANOLAMINE TYPE I | 32.24 | – |
| C[C@]12CC[C@@H]3c4ccc(O)cc4CC[C@H]3[C@@H]1C[C@@H](O)[C@@H]2O [ESTRIOL] | 2.789 | – |
| Eicosatrienoic Acid | 15.36 | – |
| CCCCCCCCCCCCCCCCCC(=O)O [Stearic Acid] | 38.77 | – |
| C[C@H](O)C(=O)[O-].[Na+] [L(+)LACTIC ACID SODIUM] | 5.082 | – |
| THYROCALCITONIN SALMON/calcitonin | 11.37 | – |
| O=P([O-])(O)O.[K+] [Monopotassium Phosphate] | 28.67 | – |
| Chondroitin sulfate sodium | −11.46 | – |
| C[N+](C)(C)CC(=O)O [BETAINE] | −18.83 | – |
| CS(C)(=O)=O [Methylsulfonylmethane] | −17.53 | – |
| 2-DEOXY-L-RIBOSE/Deoxycytidine | 36.7 | – |
| Nc1nc2nc[nH]c2c(=O)[nH]1 [GUANINE] | 15.14 | Mouse T cell IL-2 level changes after treatment (Mouse T cell): 148.6%; Mouse CD4^+ T cell IL-2 level changes after treatment (Mouse CD4^+ T cell): 110.4%; Mouse CD8^+ T cell IL-2 level changes after treatment (Mouse CD8^+ T cell): 150.8% |
| Cl.N[C@@H](Cc1c[nH]cn1)C(=O)O [L-Histidine hydrochloride] | 3.531 | – |
| Cl.NCCc1ccc(O)c(O)c1 [3-HYDRO[…]/dopamine, 3-HYDRO[…]] | 18.78 | – |
| O=C[C@H](O)[C@@H](O)[C@H](O)[C@H](O)C(=O)O [D-Glucuronic Acid] | −45.8 | – |
| L-a-Phosphatidylcholine | −37.16 | – |
| Gelatin | 59.8 | – |
| N[C@@H](Cc1cc(I)c(Oc2ccc(O)c(I)c2)c(I)c1)C(=O)[O-].[Na+] [′,5-TRIIODO-L-THYRONINE SODIUM SALT] | −13.42 | – |
| Cn1c(=O)c2c(ncn2C)n(C)c1=O [Caffeine] | 170.0384 | – |
| CCCCCC/C=C\CCCCCCCC(=O)O [Palmitoleic acid] | 54.63 | – |
| O=C(O)CCCC[C@@H]1SC[C@@H]2NC(=O)N[C@@H]21 [BIOTIN, POWDER,, BIOTIN] | 36.45 | – |
| [Cl-].[Cl-].[Mg+2] [MAGNESIUM CHLORIDE ANHYDROUS] | 31.9 | – |
